From ChEMBL document CHEMBL3507680, “University of Dundee, Gates Library screen for HepG2 cell viability”

Assay: Human HepG2 cell viability assay in 384 well format
Assay type: toxicity, cell-based
Parameters: dose 125 nL, time 70.5 hour; cytotoxicity at 70.5 h: concentration not given beside the values
Conditions: HepG2 cells, read-out: Inhibition

Compound | cytotoxicity at 70.5 h
Cc1cccc(CN2C[C@@H]3CCCO[C@@H]3[C@H](NS(C)(=O)=O)C2)n1 | -3.48%
CCCSCC(=O)N1C[C@@H](NC(C)=O)[C@H](c2ccc(OC)cc2)C1 | -19.4%
CC(NS(C)(=O)=O)C(=O)N(C)Cc1cnn(-c2ccc(F)cc2)c1 (centres undefined) | 3.12%
COCCN1CCc2cc(C(=O)NCC3CC3)c(NC(C)C)nc2CC1 | 24.8%
O=C(NCc1nc[nH]n1)c1cc(COc2ccccc2F)[nH]n1 | -3.89%
Cc1cccc(NC(=O)N2CCCn3cnc(CN4CCCC4)c3C2)c1 | -1.43%
c1ccc(-c2noc(CN3CCC(c4ccn[nH]4)CC3)n2)cc1 | -14.9%
Cn1cc(CN2CCCC3(COCCN(Cc4c[nH]nn4)C3)C2)cn1 (centres undefined) | 0.634%
CNCC(=O)Nc1cccc(-c2cnc(NCCS(C)(=O)=O)nc2)c1 | 0.0271%
Cc1ccc(C(=O)NCC(C)Cn2cccn2)c(=O)[nH]1 (centres undefined) | -3.38%
CC(Oc1cc(Cl)cc(Cl)c1)C(=O)NCCOCC(N)=O (centres undefined) | 18%
Cc1nn(C)c(N2CCOCC2)c1CNC1CCC(O)CC1 (centres undefined) | -1.76%
COc1ccccc1C(=O)N1C[C@@H]2CCCCN(CC(N)=O)[C@@H]2C1 | -11.4%
CC(C)CNC(=O)N1C[C@H]2CCN[C@H]2C1 | -8.65%
CCc1n[nH]c(C(=O)N2CCC3(CCCN(CCOC)C3=O)C2)c1C (centres undefined) | -9.48%
CCOCCCn1c(NC(=O)c2cnn(C)c2)nc2ccccc21 | -13.3%
Cc1nccn1C1CCCN(C(=O)CCNc2ncccn2)C1 (centres undefined) | -3.44%
CCCc1cc(=O)[nH]c2nnc(SCC(=O)OC)n12 | -8.96%
COc1ncc(Cl)c(NCc2ccc(C(=O)N(C)C)cc2)n1 | 27.7%
CC(C1CC1)N(C)C(=O)c1cnc(-c2ccc3c(c2)OCO3)s1 (centres undefined) | 13.8%
CN(Cc1cn2c(n1)CN(Cc1ccsc1)CC2)Cc1ccco1 | -6.14%
CC(C)NC1CCc2c(ccc(=O)n2CC2CC2)C1 (centres undefined) | 4.51%
CCOc1cc(C(=O)N2CCCC(n3cncn3)C2)ccc1C (centres undefined) | -20.7%

Compound | cytotoxicity at 70.5 h
CCN(Cc1cc(-c2ccccn2)no1)C1CCS(=O)(=O)C1 (centres undefined) | -9.24%
Cc1oc(CN(C)C(=O)c2ccc(C(F)(F)F)cc2)cc1C(=O)O | -6.23%
CCOCC(=O)N1CCc2nc(C)nc(NC(C)C)c2CC1 | 16%
Cc1nc(CN2CCOC(Cn3cncn3)C2)nc2ccccc12 (centres undefined) | -16.8%
O=C(NCC1CC1)[C@H]1CN(Cc2nccs2)C[C@H]2OCC[C@@H]12 | -9.38%
Cc1nc(C)c(C(=O)N2CCCC(n3ccnc3C)C2)s1 (centres undefined) | -3.06%
CC(C)NC(=O)N1CC[C@@H](N(C)C)[C@@H]1Cc1ccncc1 | -6.16%
CCOc1ccc(CSC(C)c2nc(C)no2)nc1 (centres undefined) | -6.64%
CCc1ncc(C(=O)NCCN(C)S(C)(=O)=O)cn1 | 17.2%
Cn1nc(C(=O)N2CCOCC2)cc1C(=O)Nc1c(Cl)cccc1Cl | -2.69%
N#Cc1ccc(Oc2cc(F)c(CN3CCCC3)c(F)c2)nc1 | -2.2%
Cc1ccc(-c2nc(CN3CCn4c(nnc4C4CC4)C3)cs2)o1 | 14.8%
C[C@@H]1CN(Cc2cccnc2)C[C@]12CCN(CCN1CCCC1)C2=O | -4.97%
CCN1CCOC(CNCc2csc(C)n2)C1 (centres undefined) | -14.2%
Cc1ncsc1CN1CCN(C2CCOCC2)CC(C(N)=O)C1 (centres undefined) | 10.5%
CSCc1noc(CN2CC3(CCCC3)CC2=O)n1 | -7.21%
CCN1CCCC1CN(Cc1ccon1)CC1CCN(CCOC)CC1 (centres undefined) | -9.79%
CCN(CC)C(=O)c1ccn(COc2ccc(F)cc2)n1 | -10.8%
O=C(C[S+]([O-])Cc1c(F)cccc1Cl)N1CCc2sccc2C1 (centres undefined) | -6.1%
CCOc1cc(CN(C)CC(C)(C)O)ccc1OC(F)F | 4.76%
COCCN1CCC(c2ncc(C(=O)N3CCOCC3)c(C)n2)CC1 | -1.72%
Cn1ccnc1CN(CCO)Cc1ccc(C(F)(F)F)cc1 | -6.45%
CN1C(=O)CC(C(=O)O)C12CCN(Cc1cc(F)ccc1Cl)CC2 (centres undefined) | -9.93%

Compound | cytotoxicity at 70.5 h
CC(C)N(C)Cc1cncc2c1CCN(CC1CC1)C2 | 15.2%
COCCN1C[C@@H](C)[C@@]2(COCCN(C(=O)c3ccccn3)C2)C1 | -4.02%
COC[C@]12COC[C@H]1CN(Cc1cc(OC)cc(OC)c1)C2 | -10.3%
Cn1cnc(S(=O)(=O)N2CCCC2)c1Cl | -10.3%
Cc1nc2sccn2c1CN(CCCN(C)C)Cc1ccco1 | -21.2%
CC(NCc1cccc(C#N)c1)c1ccccn1 (centres undefined) | -6.12%
COc1ccc(N2CCN(C(=O)CCn3nccc3C)CC2(C)C)cc1 | 1.97%
CCOCCCNC(=O)c1cc(OC)c2ccoc2c1 | -1.75%
CCCc1cc(CN(C)C2CCSCC2)n[nH]1 | 0.588%
CN(CC1CCN(CCO)CC1)CC(O)c1ccc(F)c(F)c1 (centres undefined) | 7.09%
O=C(c1ccoc1)N1CCCCC1c1nc[nH]n1 (centres undefined) | -1.78%
Cc1cc(C)c(CN2CCCC23Cc2ccccc2CNC3=O)c(C)c1 (centres undefined) | -9.48%
CCN1CC(C(=O)N2CCN(c3nsc4ccccc34)CC2)CCC1=O (centres undefined) | 19.6%
CC1(c2cc[nH]n2)CCN(C(=O)c2ccc(Cl)cc2)CC1 | -4.57%
CCOC(=O)N1CCC(NC(=O)c2cccc(C3CCCNC3)c2)CC1 (centres undefined) | -24.4%
Cc1ccc(CN(C)Cc2cc(C3CC3)[nH]n2)c(O)n1 | -5.35%
CC(C)Cc1nc(CN2CCOC(Cn3cncn3)C2)no1 (centres undefined) | -8.48%
CC(Cn1cccn1)NC(=O)NCc1cccnc1OC(C)C (centres undefined) | -4.84%
CCCSc1ncc(CN2CCN(C)C(=O)C2C)cn1 (centres undefined) | 20.3%
O=S(=O)(c1ccccc1)N1C[C@@H]2CCN[C@@H]2C1 | -7.19%
O=c1cc(C2CCNCC2)nc(CCc2ccccn2)[nH]1 | -2.52%
COc1ccc(F)c(-c2cc(NCCO)nc(N)n2)c1 | -3.97%
CCC(C)(N)c1nc(=O)c(C)c(C)[nH]1 (centres undefined) | -7.88%

Compound | cytotoxicity at 70.5 h
Cc1[nH]c2ccc(Cl)cc2c1CCNc1ncnc2c1CCNC2 | -6.2%
CCC(CNC(=O)CNC(C)=O)Oc1cccc(F)c1 (centres undefined) | -9.82%
Cc1ccc2nc(C3CCCN3C(=O)c3cc(=O)[nH]c(=O)[nH]3)[nH]c2c1 (centres undefined) | 30.8%
CCOC1Sc2nnc(C)n2N=C1c1ccc(Cl)cc1 (centres undefined) | -8.8%
CC(C)N1CCCC(C(=O)N2CCc3c(nc(CC4CC4)[nH]c3=O)C2)C1 (centres undefined) | 3.48%
CCNc1ncc2c(n1)CN(c1ccc(Cl)cc1)C2=O | -14.1%
CN1CC(=O)N(c2cnn(C)c2)CC12CCN(Cc1cccs1)C2 (centres undefined) | -1.01%
CCOc1cc(CNCC2CN(C3CC3)CCO2)ccc1OC (centres undefined) | -8.19%
Cc1ccc(Nc2c(C#N)c(=O)n(C)c(=O)n2C)cc1F | -4.93%
Cc1ccccc1CC(=O)N[C@@H]1CCC[C@@H](N2CCNC(=O)C2)[C@@H]1O | -6.12%
COCCc1noc(CNC2CCc3nc(C(C)C)nn3C2)n1 (centres undefined) | -5%
c1ccc(Cn2cncn2)c(CNCC2CNc3ccnn3C2)c1 (centres undefined) | -13.5%
CCc1ccc(C(C)NC(=O)CCc2nc(-c3nnc[nH]3)no2)cc1 (centres undefined) | -4.48%
Cc1cc(C(=O)N(CC(C)C)CC(O)c2ccc(F)cc2)[nH]n1 (centres undefined) | -2.51%
O=C(c1cscn1)N1CCC(Cc2cnc3[nH]ccc3c2)C1 (centres undefined) | -1.17%
O=C(NC1CC1)NC(c1cc(F)ccc1F)C1CC1 (centres undefined) | -5.9%
O=C1OCCN1CCc1nc(-c2cc3c4c(c2)CC(=O)N4CCC3)cs1 | 10.6%
CNc1nc(C(=O)N2CCCC(CO)(CCCOC)C2)cs1 (centres undefined) | -4.71%
O=C([C@H]1COC[C@H]2CN(c3ncc(F)cn3)C[C@H]21)N1CCOCC1 | -7.81%
CN1CCOC(CNCc2cnc(C(C)(C)C)s2)C1 (centres undefined) | 0.446%
Cc1sc(CS(C)(=O)=O)nc1-c1ccc(Cl)cc1 | 14.3%
Cc1ccc(Nc2nccc(C3CCN(CC(N)=O)C3)n2)nc1 (centres undefined) | -8.32%
COc1cc(-c2cccc3c2OC(CN)C3)ccc1O (centres undefined) | 14.1%

Compound | cytotoxicity at 70.5 h
Cc1nn(C2CCCC2)c2nc(C(C)(C)CN3CCN(C)CC3)[nH]c12 | -2.47%
Cc1nc(C)n(CC2CCCN2Cc2nc(-c3ccsc3)no2)n1 (centres undefined) | 12.8%
NC(=O)C1CCN(C(=O)Cn2nc(-c3ccccc3)oc2=O)C1 (centres undefined) | -5.69%
Cn1cc(CN2CCc3ncnc(C4CCOC4)c3CC2)cn1 (centres undefined) | 6%
O=C(c1ncccc1O)N1CCc2c(nc(-c3ccncc3)[nH]c2=O)C1 | 9.03%
COC[C@@H]1CC[C@H]2[C@H](CCN2S(=O)(=O)Cc2ccccc2)O1 | -1.62%
Cc1cccc2ncn(C(C)Cn3cccn3)c(=O)c12 (centres undefined) | -10.4%
O=C(NCCCN1CCOCC1)c1ccc(-n2ccc3ccccc32)s1 | -3.96%
O=S1(=O)c2cccnc2OC(COc2ccccc2)CN1CC1CC1 (centres undefined) | -2.28%
Cc1cc(CC(=O)NCC(O)COc2ccc(F)c(F)c2)no1 (centres undefined) | -12%
CCCN1CCCC2(CCN(S(=O)(=O)N3CCC(OC)CC3)C2)C1=O (centres undefined) | -1.84%
c1csc(N2CCN(Cc3nnnn3C3CC3)CC2)n1 | 0.58%
c1cc(CN2CCC3(CC2)COC(COCC2CC2)C3)ccn1 (centres undefined) | -16.7%
COCCn1ccc(=O)c(OCC(=O)Nc2cccc(Cl)c2)c1C | -8.65%
C[C@@H]1CC[C@@H](C)N1C(=O)c1cc(COc2ccccc2)[nH]n1 | -0.483%
Cc1cc(N(C)C)nc(C2(C)CCCN2CC(N)=O)n1 (centres undefined) | -2.11%
Cc1nc(C2CCCN2C(=O)CCCOc2ccccc2C)no1 (centres undefined) | -8.51%
CCS(=O)(=O)Cc1csc(-c2ccc(S(C)(=O)=O)cc2)n1 | -6.86%
CC(C)(C)c1n[nH]c(C2CN(C(=O)c3cc(C4CC4)[nH]n3)CCO2)n1 (centres undefined) | -1.31%
COc1ccccc1OCc1nc(C(C)C)no1 | 12.8%
CCOCC1CN(Cc2ccco2)Cc2nccn2C1 (centres undefined) | 3.52%
CS(=O)(=O)N1C[C@H]2CNC[C@@]2(C(=O)NCCOc2ccccc2)C1 | -1.07%
